Our source for the IA and Inhibition values is ChEMBL document CHEMBL1135794, “Looking for selectivity among cytochrome P450s inhibitors” (J Med Chem, 2002).

Data set [1] concerns the target T1, Steroid 17-alpha-hydroxylase/17,20 lyase (Homo sapiens, UniProt P05093).
T1 sequence (P05093 whole entry): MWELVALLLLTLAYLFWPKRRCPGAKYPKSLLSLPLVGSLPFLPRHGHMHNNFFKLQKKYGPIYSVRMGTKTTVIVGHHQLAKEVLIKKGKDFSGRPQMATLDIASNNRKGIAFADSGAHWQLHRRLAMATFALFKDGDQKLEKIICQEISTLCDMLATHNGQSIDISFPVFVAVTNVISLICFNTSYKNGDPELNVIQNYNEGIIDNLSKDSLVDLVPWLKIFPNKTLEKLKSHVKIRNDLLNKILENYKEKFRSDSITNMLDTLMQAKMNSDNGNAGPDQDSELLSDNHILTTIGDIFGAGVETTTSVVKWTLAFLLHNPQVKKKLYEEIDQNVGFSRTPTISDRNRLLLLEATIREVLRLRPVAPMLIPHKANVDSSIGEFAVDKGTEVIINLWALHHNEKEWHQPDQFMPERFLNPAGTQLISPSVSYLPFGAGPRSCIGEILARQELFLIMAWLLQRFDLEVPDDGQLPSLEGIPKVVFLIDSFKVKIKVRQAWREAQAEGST
Nature of the data set: Inhibition of Cytochrome P450 17; Inactive.

For data set [2], the target named is T1, Steroid 17-alpha-hydroxylase/17,20 lyase. The data set is described as follows: Inhibition of Cytochrome P450 17.

In the case of `N#Cc1ccc(Cn2ccnc2)c2oc3ccccc3c(=O)c12`, the IA result in data set [1] is on record as “Not Active”.
For the compound `O=c1c2ccccc2oc2c(Br)ccc(Cn3ccnc3)c12`, the Inhibition in data set [2] came to 42 nM.
